Patent US8729017B2 (priority 2011, dated 2014)
pEC50: −log10 of the molar value. Like-named read-outs stand apart in the source and are kept apart here. Blank lines part the entries; values can stand above or below the compound they belong to. Square brackets hold non-standard residues; d marks the D form. Ends that are not written are not given here. Peptide text beside a SMILES is read from it. * marks the point of attachment. Palmitoyl = CCCCCCCCCCCCCCCC(=O)*; Aib = CC(C)(N)C(=O)O

Legend:
Assay type in all cases: cell-based
[1] = molecular target: T1, GLP-1 receptor (Homo sapiens, UniProt P43220); experiment: cAMP induction, firefly luciferase reporter assay in HEK293 cells co-transfected with the GLP-1 receptor; conditions: HEK293 cells, cAMP-responsive luciferase reporter, 5 hours incubation; for EC50: read-out: EC50 (nM) at GLP-1 receptor
T1 construct: expressed in transfected cells; host or cells: HEK293
T1 sequence (P43220 24-463): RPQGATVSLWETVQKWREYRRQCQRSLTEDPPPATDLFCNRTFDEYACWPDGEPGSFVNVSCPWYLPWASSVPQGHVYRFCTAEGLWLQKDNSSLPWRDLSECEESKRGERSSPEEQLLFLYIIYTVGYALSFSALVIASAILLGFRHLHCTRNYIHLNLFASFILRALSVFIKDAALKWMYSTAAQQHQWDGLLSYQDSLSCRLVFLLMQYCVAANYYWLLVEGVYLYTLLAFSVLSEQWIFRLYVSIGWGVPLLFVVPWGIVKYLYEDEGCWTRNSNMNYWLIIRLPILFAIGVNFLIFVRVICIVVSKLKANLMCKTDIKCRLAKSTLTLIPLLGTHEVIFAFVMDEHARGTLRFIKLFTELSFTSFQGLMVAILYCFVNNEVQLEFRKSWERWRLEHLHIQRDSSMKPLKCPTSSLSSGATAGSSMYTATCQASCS
Experimental: (§1) The ability of each peptide to induce cAMP was measured in a firefly luciferase-based reporter assay. […] At the end of the incubation, 100 μL of LucLite luminescence substrate reagent (Perkin Elmer, Wellesley, Mass.) were added to each well. […] In some instances, the in vitro agonist activity at the GIP receptor was also tested.

[2] = molecular target: T2, GIP receptor (Homo sapiens, UniProt P48546); experiment: in vitro agonist activity at the GIP receptor (cAMP luciferase reporter, HEK293 cells); conditions: in vitro agonist activity; for EC50: read-out: EC50 (nM) at GIP receptor
T2 construct: expressed in transfected cells; host or cells: HEK293
T2 sequence (P48546 22-466): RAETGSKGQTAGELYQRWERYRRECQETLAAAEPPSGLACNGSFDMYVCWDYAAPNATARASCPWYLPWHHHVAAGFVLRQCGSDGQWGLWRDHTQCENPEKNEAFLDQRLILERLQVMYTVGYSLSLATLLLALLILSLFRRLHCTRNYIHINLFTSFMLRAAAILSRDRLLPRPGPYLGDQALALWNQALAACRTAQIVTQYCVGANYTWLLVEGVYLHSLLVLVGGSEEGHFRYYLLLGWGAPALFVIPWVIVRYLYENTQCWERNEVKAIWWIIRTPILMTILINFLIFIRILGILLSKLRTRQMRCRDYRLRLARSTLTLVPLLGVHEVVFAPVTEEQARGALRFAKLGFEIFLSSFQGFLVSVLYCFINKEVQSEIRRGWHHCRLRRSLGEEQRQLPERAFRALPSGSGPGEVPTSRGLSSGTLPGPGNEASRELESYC
Experimental: as §1, with “It is understood that a lower EC50 indicates higher activity or potency at the receptor. […] The” for “The”

[3] = molecular target: T3, glucagon receptor (Homo sapiens, UniProt P47871); experiment: cAMP induction, firefly luciferase reporter assay in HEK293 cells co-transfected with the glucagon receptor; conditions: HEK293 cells, cAMP-responsive luciferase reporter, 5 hours incubation; for EC50: read-out: EC50 (nM) at glucagon receptor
T3 construct: expressed in transfected cells; host or cells: HEK293
T3 sequence (P47871 26-477, species assumed): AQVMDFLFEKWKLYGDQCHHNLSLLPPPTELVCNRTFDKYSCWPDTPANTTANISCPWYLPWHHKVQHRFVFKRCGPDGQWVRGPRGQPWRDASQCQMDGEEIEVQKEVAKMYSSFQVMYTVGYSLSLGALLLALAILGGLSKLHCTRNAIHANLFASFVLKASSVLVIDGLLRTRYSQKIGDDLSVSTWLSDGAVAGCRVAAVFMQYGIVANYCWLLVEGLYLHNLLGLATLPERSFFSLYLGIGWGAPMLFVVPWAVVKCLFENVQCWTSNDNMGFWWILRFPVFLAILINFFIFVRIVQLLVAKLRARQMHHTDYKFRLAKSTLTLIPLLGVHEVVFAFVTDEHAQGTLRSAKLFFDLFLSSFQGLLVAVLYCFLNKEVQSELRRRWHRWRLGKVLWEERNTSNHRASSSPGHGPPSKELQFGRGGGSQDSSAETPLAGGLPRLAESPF
Experimental: as §1

Compound: 45 (H[Aib]QGTFTSDYSKYLDEKRA[Aib]EFVC(PEG 40 kDa)WLLDT-OH) [compound 45]
EC50 (nM) at GIP receptor [2]: no activity

Compound: CC[C@H](C)[C@H](NC(=O)[C@H](Cc1ccccc1)NC(=O)[C@H](CC(C)C)NC(=O)[C@H](CCCNC(=N)N)NC(=O)[C@@H](NC(=O)[C@H](C)NC(=O)[C@H](CCC(N)=O)NC(=O)[C@H](CCC(=O)O)NC(=O)[C@H](CC(=O)O)NC(=O)[C@H](CC(C)C)NC(=O)[C@H](Cc1ccc(O)cc1)NC(=O)[C@H](CCCCN)NC(=O)[C@H](CO)NC(=O)[C@H](Cc1ccc(O)cc1)NC(=O)[C@H](CC(=O)O)NC(=O)[C@H](CO)NC(=O)[C@@H](NC(=O)[C@H](Cc1ccccc1)NC(=O)[C@@H](NC(=O)CNC(=O)[C@H](CCC(N)=O)NC(=O)[C@@H](CO)NC(=O)[C@@H](N)Cc1c[nH]cn1)[C@@H](C)O)[C@@H](C)O)C(C)C)C(=O)N[C@@H](CS)C(=O)N[C@@H](Cc1c[nH]c2ccccc12)C(=O)N[C@@H](CC(C)C)C(=O)N[C@@H](CC(C)C)C(=O)N[C@@H](CC(=O)O)C(=O)NCC(=O)NCC(=O)N1CCC[C@H]1C(=O)N[C@@H](CO)C(=O)N[C@@H](CO)C(=O)NCC(=O)N[C@@H](C)C(=O)N1CCC[C@H]1C(=O)N1CCC[C@H]1C(=O)N1CCC[C@H]1C(=O)N[C@@H](CO)C(N)=O [compound 62] (H-H[dS]QGTFTSDYSKYLDEQAVRLFICWLLDGGPSSGAPPPS-NH2; N-terminus assumed)
EC50 [1]: 0.006 nM | EC50 [3]: 0.132 nM

Compound: 51 (H[Aib]QGTFTSDYSKYLDEKRA[Aib]EFVC(PEG 40 kDa (thioether via iodoacetyl))WLL[Aib]GGPSSGAPPPS-NH2) [compound 51]
EC50 (nM) at GIP receptor [2]: no activity

Compound: 13 (H[Aib]QGTFTSDYSKYLDEKRA[Aib]EFVC(PEG 40 kDa)WLLDT-NH2) [compound 13]
EC50 (nM) at GIP receptor [2]: no activity

Compound: 46 (H[Aib]QGTFTSDYSKYLD[Aib]KRA[Aib]EFVC(PEG 40 kDa)WLLDGGPSSGAPPPS-NH2) [compound 46]
EC50 (nM) at GIP receptor [2]: no activity

Compound: 47 (H[Aib]QGTFTSDYSKYLDEKRA[Aib]EFVC(PEG 40 kDa)WLLDGGPSSGAPPPS-NH2) [compound 47]
EC50 (nM) at GIP receptor [2]: no activity

More lines, now with the values ahead:

pEC50 [1]: 11.00 | EC50 [2]: 7.48 nM | pEC50 [3]: 10.29
Compound: CCCCCCCCCCCCCCCC(=O)NCCCC[C@H](NC(=O)[C@H](CC(=O)O)NC(=O)[C@H](CO)NC(=O)[C@@H](NC(=O)[C@H](Cc1ccccc1)NC(=O)[C@@H](NC(=O)CNC(=O)[C@H](CCC(N)=O)NC(=O)C(C)(C)NC(=O)[C@@H](N)Cc1c[nH]cn1)[C@@H](C)O)[C@@H](C)O)C(=O)N[C@@H](CO)C(=O)N[C@@H](CCCCN)C(=O)N[C@@H](Cc1ccc(O)cc1)C(=O)N[C@@H](CC(C)C)C(=O)N[C@@H](CC(=O)O)C(=O)N[C@@H](CCC(=O)O)C(=O)N[C@@H](CCCNC(=N)N)C(=O)N[C@@H](CCCNC(=N)N)C(=O)N[C@@H](C)C(=O)NC(C)(C)C(=O)N[C@@H](CC(=O)O)C(=O)N[C@@H](Cc1ccccc1)C(=O)N[C@H](C(=O)N[C@@H](CCC(N)=O)C(=O)N[C@@H](Cc1c[nH]c2ccccc12)C(=O)N[C@@H](CC(C)C)C(=O)N[C@@H](CCSC)C(=O)N[C@@H](CC(N)=O)C(=O)N[C@H](C(N)=O)[C@@H](C)O)C(C)C [compound 59] (H-H[Aib]QGTFTSDK(Palmitoyl)SKYLDERRA[Aib]DFVQWLMNT-NH2)

pEC50 [1]: 11.05 | EC50 [2]: 4.5 nM | pEC50 [3]: 11.30
Compound: CCCCCCCCCCCCCCCC(=O)N[C@@H](CCC(=O)NCCCC[C@H](NC(=O)[C@H](CC(=O)O)NC(=O)[C@H](CO)NC(=O)[C@@H](NC(=O)[C@H](Cc1ccccc1)NC(=O)[C@@H](NC(=O)CNC(=O)[C@H](CCC(N)=O)NC(=O)[C@@H](CO)NC(=O)[C@H](Cc1c[nH]cn1)NC(C)=O)[C@@H](C)O)[C@@H](C)O)C(=O)N[C@@H](CO)C(=O)N[C@@H](CCCCN)C(=O)N[C@@H](Cc1ccc(O)cc1)C(=O)N[C@@H](CC(C)C)C(=O)N[C@@H](CC(=O)O)C(=O)N[C@@H](CCC(=O)O)C(=O)N[C@@H](CCCNC(=N)N)C(=O)N[C@@H](C)C(=O)N[C@@H](C)C(=O)N[C@@H](CCC(N)=O)C(=O)N[C@@H](CC(=O)O)C(=O)N[C@@H](Cc1ccccc1)C(=O)N[C@H](C(=O)N[C@@H](CCC(N)=O)C(=O)N[C@@H](Cc1c[nH]c2ccccc12)C(=O)N[C@@H](CC(C)C)C(=O)N[C@@H](CC(C)C)C(=O)N[C@@H](CC(=O)O)C(=O)N[C@H](C(N)=O)[C@@H](C)O)C(C)C)C(=O)O [compound 21]

EC50 (nM) at GIP receptor [2]: no activity
Compound: 38 (H[Aib]QGTFTSDYSKYLD[Aib]KRA[Aib]EFVC(PEG 40 kDa)WLLDT-NH2) [compound 38]

EC50 (nM) at GIP receptor [2]: no activity
Compound: 41 (H[Aib]QGTFTSDYSKYLDEKRA[Aib]EFVC(PEG 40 kDa)WLL[Aib]T-NH2) [compound 41]

EC50 [1]: 0.012 nM | EC50 [3]: 0.009 nM
Compound: CCCCCCCCCCCCCCCC(=O)N[C@@H](CCC(=O)NCCCC[C@H](NC(=O)[C@H](CC(=O)O)NC(=O)[C@H](CO)NC(=O)[C@@H](NC(=O)[C@H](Cc1ccccc1)NC(=O)[C@@H](NC(=O)CNC(=O)[C@H](CCC(N)=O)NC(=O)[C@@H](CO)NC(=O)[C@@H](N)Cc1c[nH]cn1)[C@@H](C)O)[C@@H](C)O)C(=O)N[C@@H](CO)C(=O)N[C@@H](CCCCN)C(=O)N[C@@H](Cc1ccc(O)cc1)C(=O)N[C@@H](CC(C)C)C(=O)N[C@@H](CC(=O)O)C(=O)N[C@@H](CCC(=O)O)C(=O)N[C@@H](CCC(N)=O)C(=O)N[C@@H](C)C(=O)N[C@@H](C)C(=O)N[C@@H](CCCCN)C(=O)N[C@@H](CCC(=O)O)C(=O)N[C@@H](Cc1ccccc1)C(=O)N[C@H](C(=O)N[C@@H](CS)C(=O)N[C@@H](Cc1c[nH]c2ccccc12)C(=O)N[C@@H](CC(C)C)C(=O)N[C@@H](CC(C)C)C(=O)N[C@@H](CC(=O)O)C(=O)N[C@H](C(N)=O)[C@@H](C)O)[C@@H](C)CC)C(=O)O [compound 64]

EC50 [1]: 0.024 nM | EC50 [3]: 0.028 nM
Compound: CCCCCCCCCCCCCCCC(=O)N[C@@H](CCC(=O)NCCCC[C@H](NC(=O)[C@H](CC(=O)O)NC(=O)[C@H](CO)NC(=O)[C@@H](NC(=O)[C@H](Cc1ccccc1)NC(=O)[C@@H](NC(=O)CNC(=O)[C@H](CCC(N)=O)NC(=O)[C@@H](CO)NC(=O)[C@@H](N)Cc1c[nH]cn1)[C@@H](C)O)[C@@H](C)O)C(=O)N[C@@H](CO)C(=O)N[C@@H](CCCCN)C(=O)N[C@@H](Cc1ccc(O)cc1)C(=O)N[C@@H](CC(C)C)C(=O)N[C@@H](CC(=O)O)C(=O)N[C@@H](CCC(=O)O)C(=O)N[C@@H](CCC(N)=O)C(=O)N[C@@H](C)C(=O)N[C@@H](C)C(=O)N[C@@H](CCCCN)C(=O)N[C@@H](CCC(=O)O)C(=O)N[C@@H](Cc1ccccc1)C(=O)N[C@H](C(=O)N[C@@H](CS)C(=O)N[C@@H](Cc1c[nH]c2ccccc12)C(=O)N[C@@H](CC(C)C)C(=O)N[C@@H](CC(C)C)C(=O)N[C@@H](CC(=O)O)C(=O)N[C@H](C(=O)N[C@@H](CCC(=O)O)C(N)=O)[C@@H](C)O)[C@@H](C)CC)C(=O)O [compound 65]

EC50 (nM) at GIP receptor [2]: no activity
Compound: 52 (H[Aib]QGTFTSDYSKYLDEK[Aib]AKEFVC(PEG 40 kDa (thioether via iodoacetyl))WLLDT-NH2) [compound 52]
